{
  "source": "patent US20260070924A1",
  "about": "“INDAZOLE MACROCYCLES AND THEIR USE” (BLOSSOMHILL THERAPEUTICS, INC., priority 2022, published 2026)",
  "key": {"PIM1": {"target": "PIM1 (Homo sapiens (Human), UniProt P11309)", "sequence (P11309 whole entry)": "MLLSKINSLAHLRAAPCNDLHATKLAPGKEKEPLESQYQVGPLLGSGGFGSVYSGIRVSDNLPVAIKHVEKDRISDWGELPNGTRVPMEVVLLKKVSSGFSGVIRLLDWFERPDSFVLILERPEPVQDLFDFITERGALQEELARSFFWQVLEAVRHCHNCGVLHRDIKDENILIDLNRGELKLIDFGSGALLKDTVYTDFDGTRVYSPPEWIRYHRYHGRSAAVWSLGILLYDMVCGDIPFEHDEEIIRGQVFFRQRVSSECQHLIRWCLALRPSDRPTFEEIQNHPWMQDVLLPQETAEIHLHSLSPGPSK", "experiment": "HotSpot radiometric kinase assay (Reaction Biology)", "type": "biochemical", "method": "(§1) Briefly, specific kinase/substrate pairs along with required cofactors were prepared in reaction buffer; 20 mM Hepes pH 7.5, 10 mM MgCl2, 1 mM EGTA, 0.02% Brij35, 0.02 mg/ml BSA, 0.1 mM Na3VO4, 2 mM DTT, 1% DMSO. Compounds were delivered into the reaction, followed ˜20 minutes later by addition of a mixture of ATP (Sigma, St. Louis MO) and ^33P ATP (Perkin Elmer, Waltham MA) to a final concentration of […]. Reactions were carried out at room temperature for 120 min, followed by spotting of the reactions onto P81 ion exchange filter paper (Whatman Inc., Piscataway, NJ). Unbound phosphate was removed by extensive washing of filters in 0.75% phosphoric acid. […] IC50 values and curve fits were obtained using Prism (GraphPad Software)."}, "PIM2": {"target": "PIM2 (Homo sapiens (Human), UniProt Q9P1W9)", "sequence (Q9P1W9 whole entry)": "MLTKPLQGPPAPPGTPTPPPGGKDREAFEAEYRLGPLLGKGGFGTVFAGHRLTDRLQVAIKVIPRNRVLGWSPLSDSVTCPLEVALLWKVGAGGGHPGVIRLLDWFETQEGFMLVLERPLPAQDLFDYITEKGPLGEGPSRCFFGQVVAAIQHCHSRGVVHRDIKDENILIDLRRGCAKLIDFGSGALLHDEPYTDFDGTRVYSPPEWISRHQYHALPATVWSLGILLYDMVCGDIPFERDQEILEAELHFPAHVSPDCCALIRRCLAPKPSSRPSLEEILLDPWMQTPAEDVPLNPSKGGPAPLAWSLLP", "experiment": "HotSpot radiometric kinase assay (Reaction Biology)", "type": "biochemical", "method": "as §1"}, "PIM3": {"target": "PIM3 (Homo sapiens (Human), UniProt Q86V86)", "experiment": "HotSpot radiometric kinase assay (Reaction Biology)", "type": "biochemical", "method": "as §1"}, "CLK1": {"target": "CLK1 (Homo sapiens (Human), UniProt P49759)", "sequence (P49759 whole entry)": "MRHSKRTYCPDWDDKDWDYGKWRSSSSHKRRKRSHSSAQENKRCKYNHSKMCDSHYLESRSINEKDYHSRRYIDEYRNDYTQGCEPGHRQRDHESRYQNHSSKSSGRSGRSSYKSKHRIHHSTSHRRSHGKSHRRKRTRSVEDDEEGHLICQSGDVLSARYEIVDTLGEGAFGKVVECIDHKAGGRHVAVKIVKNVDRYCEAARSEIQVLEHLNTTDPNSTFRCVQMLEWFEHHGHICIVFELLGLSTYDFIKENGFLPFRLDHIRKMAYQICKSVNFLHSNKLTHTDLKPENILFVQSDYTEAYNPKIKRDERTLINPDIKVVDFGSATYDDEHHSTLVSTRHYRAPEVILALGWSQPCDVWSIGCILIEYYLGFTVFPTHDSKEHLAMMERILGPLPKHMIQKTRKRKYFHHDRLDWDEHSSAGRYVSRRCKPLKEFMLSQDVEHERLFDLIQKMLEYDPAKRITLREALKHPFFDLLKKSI", "experiment": "CLK kinase activity assay (ADP-Glo)", "type": "biochemical", "method": "(§2) Kinase protein and substrate were pre-diluted in the HEPES assay buffer (100 mM HEPES, pH 7.5, 0.01% Triton X-100, 0.1% BSA, 5 mM MgCl2, 1 mM DTT, 10 μM Sodium Orthovanadate, 10 μM Beta-Glycerophosphate) dispensed into 384 well plate (5 μL per well). Control samples (0%-inhibition in the absence of inhibitor, DMSO only) and 100%-inhibition (in the absence of enzyme) were assembled in replicates of six and were used to calculate %-inhibition in the presence of compounds. Test compounds were added to the protein samples by acoustic dispensing (Labcyte Echo550). Concentration of DMSO was equalized to 1% in all samples. Reactions were initiated by addition of ATP by acoustic dispensing (Labcyte Echo550) and incubated according to assay specific incubation time. After incubation, 5 uL of Promega ADP-Glo reagent was added and incubated for 40 minutes. After 40 minutes, 10 uL of Promega kinase detection reagent was added. After 10 min of incubation with Kinase detection reagent, the luminescence was read on microplate reader (Biotek Synergy)."}, "CLK2": {"target": "CLK2 (Homo sapiens (Human), UniProt P49760)", "sequence (P49760 whole entry)": "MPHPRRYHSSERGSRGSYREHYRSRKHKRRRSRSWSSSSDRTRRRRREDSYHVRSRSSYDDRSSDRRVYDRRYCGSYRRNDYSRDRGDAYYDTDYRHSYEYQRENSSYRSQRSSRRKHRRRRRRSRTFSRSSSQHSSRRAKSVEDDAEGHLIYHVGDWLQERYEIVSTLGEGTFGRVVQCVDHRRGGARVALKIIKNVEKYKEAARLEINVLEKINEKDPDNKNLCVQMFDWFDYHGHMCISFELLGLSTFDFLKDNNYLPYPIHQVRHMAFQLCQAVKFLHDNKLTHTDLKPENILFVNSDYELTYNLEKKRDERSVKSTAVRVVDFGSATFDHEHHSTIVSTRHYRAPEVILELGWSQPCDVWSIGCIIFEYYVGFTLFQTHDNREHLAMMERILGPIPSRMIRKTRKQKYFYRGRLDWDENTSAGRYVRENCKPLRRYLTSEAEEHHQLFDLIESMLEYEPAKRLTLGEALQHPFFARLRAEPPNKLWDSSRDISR", "experiment": "CLK kinase activity assay (ADP-Glo)", "type": "biochemical", "method": "as §2"}, "CLK3": {"target": "CLK3 (Homo sapiens (Human), UniProt P49761)", "sequence (P49761 whole entry)": "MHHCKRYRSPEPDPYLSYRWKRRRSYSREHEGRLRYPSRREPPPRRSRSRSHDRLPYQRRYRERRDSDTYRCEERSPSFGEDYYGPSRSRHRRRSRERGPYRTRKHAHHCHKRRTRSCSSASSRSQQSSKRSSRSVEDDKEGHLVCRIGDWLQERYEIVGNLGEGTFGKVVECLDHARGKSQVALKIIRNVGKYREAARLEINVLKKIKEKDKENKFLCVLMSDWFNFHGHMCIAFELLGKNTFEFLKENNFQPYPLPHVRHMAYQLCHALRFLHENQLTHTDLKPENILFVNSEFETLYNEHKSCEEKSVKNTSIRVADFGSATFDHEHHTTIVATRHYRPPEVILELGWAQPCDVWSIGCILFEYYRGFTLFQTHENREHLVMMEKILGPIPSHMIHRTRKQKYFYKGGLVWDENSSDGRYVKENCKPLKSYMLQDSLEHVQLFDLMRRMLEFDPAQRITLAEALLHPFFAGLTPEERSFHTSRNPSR", "experiment": "CLK kinase activity assay (ADP-Glo)", "type": "biochemical", "method": "as §2"}, "CLK4": {"target": "CLK4 (Homo sapiens (Human), UniProt Q9HAZ1)", "sequence (Q9HAZ1 whole entry)": "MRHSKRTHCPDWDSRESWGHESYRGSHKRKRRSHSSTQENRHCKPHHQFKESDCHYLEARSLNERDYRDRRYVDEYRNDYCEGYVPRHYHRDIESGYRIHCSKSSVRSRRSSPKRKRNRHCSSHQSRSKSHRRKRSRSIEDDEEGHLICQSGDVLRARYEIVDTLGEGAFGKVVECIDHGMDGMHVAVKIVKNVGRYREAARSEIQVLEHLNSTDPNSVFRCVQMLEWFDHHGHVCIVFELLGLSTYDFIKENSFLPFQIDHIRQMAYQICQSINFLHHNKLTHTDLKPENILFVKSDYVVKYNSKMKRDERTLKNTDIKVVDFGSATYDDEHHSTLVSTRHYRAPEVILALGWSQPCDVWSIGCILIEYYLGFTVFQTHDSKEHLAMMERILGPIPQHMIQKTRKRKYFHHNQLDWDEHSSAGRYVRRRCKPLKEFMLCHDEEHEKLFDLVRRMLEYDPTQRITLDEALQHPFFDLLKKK", "experiment": "CLK kinase activity assay (ADP-Glo)", "type": "biochemical", "method": "as §2"}, "[1]": {"system": "Phospho-S6 Ribosomal Protein (S235/236)", "experiment": "Inhibition of kinase phosphorylation by Western Blot in MV-4-11", "type": "cell-based", "conditions": "MV-4-11 cells, 4 hour-incubation; read-out: pS6 MV-4-11 IC50", "method": "(§3) Inhibition of kinase phosphorylation assay was performed by Western Blot using MV-4-11 and MOLM13 cell lines. Cells were plated in 24 well plates at 1 million cells per well and then treated with compounds at different concentrations, starting at 100 nM, 1:4 titration with DMSO as control. After 4 hour-incubation, cells were washed once with ice-cold PBS, and lysed in RIPA lysis buffer with protease and phosphatase inhibitors. The cell lysates were then sonicated and spun down, and 40 μg of proteins were separated by sodium dodecyl sulfate electrophoresis on a 4 to 12% Bis-Tris polyacrylamide gel and transferred onto nitrocellulose membranes using Bio-Rad Trans-Blot Turbo Transfer System (Bio-Rad). Blocking was performed using 3% BSA or 5% Non-fat dry milk (Fisher Scientific) in TBST (Tris-buffered saline containing 0.05% of Tween 20) (Bio-Rad Laboratories, Inc.). The membranes were incubated overnight with anti-phospho-FLT3 (Y589/Y591) (CST #60413), anti-phospho-STAT5 (Y694) (CST #4322), anti-Phospho-p44/42 MAPK (Erk1/2) (T202/Y204) (CST #9101), anti-Phospho-S6 Ribosomal Protein (S235/236) (CST #4858) and anti-β-Actin (CST #8457) each diluted 1000 times in 3% BSA in TBST. Membranes were washed with TBST and then incubated at room temperature for 1 hour with HRP-labeled anti-rabbit IgG polyclonal antibody (CST #7074) diluted 1000 times in 3% BSA. After TBST washing, blots were developed with a chemiluminescence system (SuperSignal West Femto Maximum Sensitivity Substrate, Pierce #34095). Luminescence was detected by LI-COR Odyssey M imaging system and luminescence intensity were quantified using Empiria Studio 2.2 software. Data was analyzed using GraphPad Prism 9 (GraphPad Software, San Diego, CA) to obtain IC50 values."}, "[2]": {"system": "Phospho-p44/42 MAPK (Erk1/2) (T202/Y204)", "experiment": "Inhibition of kinase phosphorylation by Western Blot in MV-4-11", "type": "cell-based", "conditions": "MV-4-11 cells, 4 hour-incubation; read-out: pERK MV-4-11 IC50", "method": "as §3"}, "phospho-STAT5 (Y694)": {"system": "phospho-STAT5 (Y694)", "experiment": "Inhibition of kinase phosphorylation by Western Blot in MV-4-11", "type": "cell-based", "conditions": "MV-4-11 cells, 4 hour-incubation; read-out: pSTAT5 MV-4-11 IC50", "method": "as §3"}, "BCLxS/xL": {"system": "BCLxS/xL", "experiment": "Alternative splicing ratio by qPCR in MV-4-11", "type": "cell-based", "conditions": "DMSO = 1", "method": "Alternative splicing ratio of RNA transcripts was measured by qPCR in MV-4-11 and MOLM-13 cell lines. Cells were plated in 24 well plates at 1 million cells per well and then treated with compounds at different concentrations, with DMSO only as control. […] Total RNA was extracted using the RNA Purification Kit (Invitrogen). 2 μg of RNA was used for cDNA synthesis using cDNA synthesis kit (ThermoFisher) and 20 ng of cDNA was used for qPCR using PROFLEX 96-Well PCR System (ThermoFisher).\n• BCLxS/xL (SYBR Green, IDT)"}},
  "note": "pIC50: −log10 of the molar value.",
  "data": [
    {"smiles": "CCc1nn(C)c2c1/C=C/c1n[nH]c3ccc(cc13)-c1cnn(C)c1OCCN(C)C2=O", "note": "[Ex. 6, (17E)-16-ethyl-8,12,14-trimethyl-2,11,12,14-tetrahydro-8H-3,5-ethenotripyrazolo[3,4-f:3′,4′-j:4″,3″-n][1,4]oxazacyclopentadecin-13(10H)-one]", "values": [
      {"measurement": "pIC50", "setting": "PIM1", "value": 8.58},
      {"measurement": "pIC50", "setting": "PIM2", "value": 8.25},
      {"measurement": "pIC50", "setting": "PIM3", "value": 9.94},
      {"measurement": "pIC50", "setting": "CLK1", "value": 9.87},
      {"measurement": "pIC50", "setting": "CLK2", "value": 9.78},
      {"measurement": "pIC50", "setting": "CLK3", "value": 8.23},
      {"measurement": "pIC50", "setting": "CLK4", "value": 9.35},
      {"measurement": "pIC50", "setting": "[1]", "value": 9.39},
      {"measurement": "pIC50", "setting": "[2]", "value": 8.55},
      {"measurement": "pIC50", "setting": "phospho-STAT5 (Y694)", "value": 9.22},
      {"measurement": "Alternative Splicing Ratio BCL-xS/xL 6-hour", "setting": "BCLxS/xL; MV-4-11, 2 nM", "value": 0.7},
      {"measurement": "Alternative Splicing Ratio BCL-xS/xL 24-hour", "setting": "BCLxS/xL; MV-4-11, 2 nM", "value": 0.6},
      {"measurement": "Alternative Splicing Ratio BCL-xS/xL 6-hour", "setting": "BCLxS/xL; MV-4-11, 10 nM", "value": 1.1},
      {"measurement": "Alternative Splicing Ratio BCL-xS/xL 24-hour", "setting": "BCLxS/xL; MV-4-11, 10 nM", "value": 0.9},
      {"measurement": "Alternative Splicing Ratio BCL-xS/xL 6-hour", "setting": "BCLxS/xL; MV-4-11, 50 nM", "value": 1.4},
      {"measurement": "Alternative Splicing Ratio BCL-xS/xL 24-hour", "setting": "BCLxS/xL; MV-4-11, 50 nM", "value": 1.3},
      {"measurement": "Alternative Splicing Ratio BCL-xS/xL 6-hour", "setting": "BCLxS/xL; MV-4-11, 250 nM", "value": 3.7},
      {"measurement": "Alternative Splicing Ratio BCL-xS/xL 24-hour", "setting": "BCLxS/xL; MV-4-11, 250 nM", "value": 7.3}
    ]}
  ]
}
